Measurements as given in PMC2173257 (The Journal of Cell Biology, 2002).

Key:
Kes1p = Kes1p (Saccharomyces cerevisiae, UniProt P35844); test: competitive displacement of [3H]BZDC-PI; format: binding
Kes1p^LH201/202FN = Kes1p^LH201/202FN (Saccharomyces cerevisiae, UniProt P35844, L201F/H202N); test: competitive displacement of photo-probe from purified mutant protein; format: binding

With PI(4,5)P2 the IC50 (Kes1p) was 1.9 µM and the IC50 (Kes1p^LH201/202FN) was 6.1 µM.
